Test system: PCA response
Assay: Rat Passive Cutaneous Anaphylaxis (PCA) test, ovalbumin challenge
Assay type: in vivo, Wistar rats
Method: All of the 2-nitro indane-1,3-dione prepared in the preceding Examples were submitted for biological testing. The test system was the Rat Passive Cutaneous Anaphylaxis (PCA) test described below in (ii).
Male Wister rats of 250- 300 g, were injected intraperitoneally with 0.5 ml of Bordatella pertussis vaccine (containing 4× 10^10 dead organism per ml) and subcutaneously with 0.5 ml of an emulsion of 100 mg. of ovalbumin in 2 ml of saline and 3 ml of incomplete Freunds' adjuvant. Rats were bled by cardiac puncture on day 18, the blood was pooled and separated and serum stored at -20° and thawed only once before use.
0.1 ml of each of six twofold serial dilutions of the serum in 0.9% saline were injected intradermally into separate sites on the shaved dorsal surface of 250-350 g. Wistar rats. 72 hours later the animals were challenged by i.v. injection of 0.3 ml of 1% ovalbumin mixed with 0.1 ml of a 5% solution of pontamine sky blue dye both in isotonic saline buffered with pH. 7.2 Sorenson buffer (P.B.S.). The rats were killed after 20 minutes and the diameter of the blue wheals at the antibody injection sites were measured. The starting dilution of the serum was adjusted so that there was no response, after challenge, at the site of injection of the highest dilution and a maximum response at the lowest dilution.
Amounts of the compounds were administered to rats each amount to a test group of six animals at a specified time prior to intravenous challenge with ovalbumin.
For those compounds having insoluble sodium salts, the salts were isolated by reaction of the free nitro compound with 2.5N sodium hydroxide and the filtered sodium washed free of alkali with water. The dried salts were then administered as a suspension in 1% methyl cellulose.

[1] = 25 mg/kg, 0 min between dosing and challenge, suspension of Na salt in 1% methyl cellulose
[2] = 25 mg/kg, 60 min between dosing and challenge, suspension of Na salt in 1% methyl cellulose
[3] = 100 mg/kg, 0 min between dosing and challenge, suspension of Na salt in 1% methyl cellulose
[4] = 100 mg/kg, 60 min between dosing and challenge, suspension of Na salt in 1% methyl cellulose
[5] = 25 mg/kg, 0 min between dosing and challenge, solution of Na salt
[6] = 25 mg/kg, 30 min between dosing and challenge, solution of Na salt
[7] = 100 mg/kg, 0 min between dosing and challenge, solution of Na salt
[8] = 100 mg/kg, 30 min between dosing and challenge, solution of Na salt
[9] = 25 mg/kg, 60 min between dosing and challenge, solution of Na salt
[10] = 100 mg/kg, 60 min between dosing and challenge, solution of Na salt

## O=C1c2cccc(Br)c2C(=O)C1[N+](=O)[O-] (centres unmarked) [4-bromo-2-nitroindane-1,3-dione, 4-Bromo-2-nitro indane-1,3dione]
[1]
  % INHIBITION OF PCA RESPONSE: 8%
[2]
  % INHIBITION OF PCA RESPONSE: 24%
[3]
  % INHIBITION OF PCA RESPONSE: -4%
[4]
  % INHIBITION OF PCA RESPONSE: 70%

## CCOc1cccc2c1C(=O)C([N+](=O)[O-])C2=O (centres unmarked) [4-ethoxy-2-nitroindane-1,3-dione, 4-Ethoxy-2-nitro indane-1,3-dione]
[5]
  % INHIBITION OF PCA RESPONSE: 13%
[6]
  % INHIBITION OF PCA RESPONSE: 68%
[7]
  % INHIBITION OF PCA RESPONSE: 76%
[8]
  % INHIBITION OF PCA RESPONSE: 55%

## CCc1cccc2c1C(=O)C([N+](=O)[O-])C2=O (centres unmarked) [4-ethyl-2-nitroindane-1,3-dione, 4-Ethyl-2-nitro indane-1,3-dione]
[1]
  % INHIBITION OF PCA RESPONSE: -5%
[2]
  % INHIBITION OF PCA RESPONSE: 23%
[3]
  % INHIBITION OF PCA RESPONSE: 1%
[4]
  % INHIBITION OF PCA RESPONSE: 25%

## O=C1c2cccc(F)c2C(=O)C1[N+](=O)[O-] (centres unmarked) [4-fluoro-2-nitroindane-1,3-dione, 4-Fluoro-2-nitro indane-1,3-dione]
[5]
  % INHIBITION OF PCA RESPONSE: 48%
[6]
  % INHIBITION OF PCA RESPONSE: 8%
[7]
  % INHIBITION OF PCA RESPONSE: 86%
[8]
  % INHIBITION OF PCA RESPONSE: 30%

## CC(C)COc1cccc2c1C(=O)C([N+](=O)[O-])C2=O (centres unmarked) [4-isobutyloxy-2-nitroindane 1,3-dione, 4-Isobutyloxy-2-nitro indane-1,3-dione]
[5]
  % INHIBITION OF PCA RESPONSE: 61%
[6]
  % INHIBITION OF PCA RESPONSE: 28%
[7]
  % INHIBITION OF PCA RESPONSE: 78%
[8]
  % INHIBITION OF PCA RESPONSE: 41%

## CC(C)Oc1cccc2c1C(=O)C([N+](=O)[O-])C2=O (centres unmarked) [4-isopropyloxy-2-nitroindane 1,3-dione, 4Isopropyloxy-2-nitro-indane-1,3-dione]
[1]
  % INHIBITION OF PCA RESPONSE: 23%
25 mg/kg, 30 min between dosing and challenge, suspension of Na salt in 1% methyl cellulose
  % INHIBITION OF PCA RESPONSE: 36%
[3]
  % INHIBITION OF PCA RESPONSE: 49%
100 mg/kg, 30 min between dosing and challenge, suspension of Na salt in 1% methyl cellulose
  % INHIBITION OF PCA RESPONSE: 51%

## COc1cccc2c1C(=O)C([N+](=O)[O-])C2=O (centres unmarked) [4-methoxy-2-nitroindane-1,3-dione, 4-Methoxy-2-nitro indane-1,3-dione]
[1]
  % INHIBITION OF PCA RESPONSE: -2%
[2]
  % INHIBITION OF PCA RESPONSE: 25%
[3]
  % INHIBITION OF PCA RESPONSE: 18%
[4]
  % INHIBITION OF PCA RESPONSE: 36%

## Cc1cccc2c1C(=O)C([N+](=O)[O-])C2=O (centres unmarked) [4-methyl-2-nitroindane-1,3-dione, 4-Methyl-2-nitroindane-1,3-dione]
[1]
  % INHIBITION OF PCA RESPONSE: 2%
[2]
  % INHIBITION OF PCA RESPONSE: 33%
[3]
  % INHIBITION OF PCA RESPONSE: 6%
[4]
  % INHIBITION OF PCA RESPONSE: 57%

## CCCCOc1cccc2c1C(=O)C([N+](=O)[O-])C2=O (centres unmarked) [4-n-butyloxy-2-nitroindane 1,3-dione, 4-n-Butyloxy-2-nitro indane-1,3-dione]
[5]
  % INHIBITION OF PCA RESPONSE: 29%
[9]
  % INHIBITION OF PCA RESPONSE: 43%
[7]
  % INHIBITION OF PCA RESPONSE: 63%
[10]
  % INHIBITION OF PCA RESPONSE: 50%

## CCCOc1cccc2c1C(=O)C([N+](=O)[O-])C2=O (centres unmarked) [4-n-propyloxy 2-nitroindane 1,3-dione, 2-Nitro-4-n-Propyloxy indane-1,3-dione]
[5]
  % INHIBITION OF PCA RESPONSE: 77%
[6]
  % INHIBITION OF PCA RESPONSE: 37%
[7]
  % INHIBITION OF PCA RESPONSE: 30%
[8]
  % INHIBITION OF PCA RESPONSE: 37%

## Cc1cc2c(cc1C)C(=O)C([N+](=O)[O-])C2=O [5,6-dimethyl-2-nitroindane-1,3-dione, 5,6-Dimethyl-2-nitro-indane-1,3-dione]
[1]
  % INHIBITION OF PCA RESPONSE: 92%
[2]
  % INHIBITION OF PCA RESPONSE: 48%
[3]
  % INHIBITION OF PCA RESPONSE: 73%
[4]
  % INHIBITION OF PCA RESPONSE: 54%

## O=C1c2ccc(Br)cc2C(=O)C1[N+](=O)[O-] (centres unmarked) [5-bromo-2-nitroindane-1,3-dione, 5-Bromo-2-nitro indane-1,3-dione]
[5]
  % INHIBITION OF PCA RESPONSE: 46%
[9]
  % INHIBITION OF PCA RESPONSE: 87%
[7]
  % INHIBITION OF PCA RESPONSE: 30%
[10]
  % INHIBITION OF PCA RESPONSE: 64%

## Cc1ccc2c(c1)C(=O)C([N+](=O)[O-])C2=O (centres unmarked) [5-methyl-2-nitroindane-1,3-dione, 5-Methyl-2-nitroindane-1,3-dione]
[5]
  % INHIBITION OF PCA RESPONSE: 66%
[6]
  % INHIBITION OF PCA RESPONSE: 44%
[7]
  % INHIBITION OF PCA RESPONSE: 100%
[8]
  % INHIBITION OF PCA RESPONSE: 47%

## CCc1cc(OC)c2c(c1)C(=O)C([N+](=O)[O-])C2=O (centres unmarked) [6-Ethyl-4-methoxy-2-nitro indane-1,3-dione]
[5]
  % INHIBITION OF PCA RESPONSE: 66%
[6]
  % INHIBITION OF PCA RESPONSE: 37%
[7]
  % INHIBITION OF PCA RESPONSE: 91%
[8]
  % INHIBITION OF PCA RESPONSE: 32%

Reference: US3988476A, “Pharmaceutical compositions and methods of treating allergic conditions utilizing 2-nitroindane-1,3-dione derivatives as the active agent” (Beecham Group Limited, priority 1972, dated 1976)
